Experimental data published in US20050054680A1, “Agonists and antagonists of 5h3-like receptors of invertebrates as pesticides” (priority 2001, published 2005).
Entries after “also recorded” stand apart in the source; their conditions may differ. Read-outs that look alike come from different tables or passages of the source.

What was measured:
nematode C. elegans = settings: cited from earlier work
[1] = test system: C. elegans of the Bristol N2 strain; experiment: Automated feeding assay (bead ingestion, pharyngeal pumping); format: in vivo, Caenorhabditis elegans; settings: for Effect of 0.325 mM compound on serotonin-stimulated (0.325 mM) bead ingestion: 0.325 mM compound plus 0.325 mM serotonin; for Effect of 0.325 mM compound on bead ingestion: no added serotonin; for IC50 / IC50 (inhibitory concentration 50%) for bead ingestion: estimated from log dose response curves (FIG. 2); for IC50: read-out: IC50 (inhibitory concentration 50%) for bead ingestion
Excerpt: An automated screening assay has been developed and described in the present Applicants' co-pending International patent application No. PCT/AU00/01476 (WO 01/40500). Using the screening assay, twenty novel tropanyl ester compounds as well as tropanyl dichlorobenzoate were screened for nematicidal activity.
The assay used was essentially that described in WO 01/40500 with minor modifications. The protocol was as follows:
(1.) Plate Culture. C. elegans of the Bristol N2 strain (Brenner, 1974) were cultured at room temperature on HMS174 E. coli bacteria (Campbell et al., 1978) spread on a 150 mm diameter petri dish containing enhanced NGM 1.7% (w/v) (Avery and Horvitz, 1990) agar until a good population of adult nematodes was present, but food reserves had not been exhausted.
(2.) The nematodes were collected by washing each plate with 10 mL and then 5 mL of M9 buffer plate and filtering over a 20 μm nylon mesh (Nytal—Catalogue no. BCNY-HDO02-20) to retain adult nematodes. The nematodes from 7-8 of these 150 mm plates were collected together and placed on a 63 μm mesh filter (Nytal—product code PA-25-43) and washed with 200-250 mL of M9 buffer or MilliQ water. This procedure allows the passage of nematodes whilst retaining larger debris. Finally the nematodes were collected over a 20 μm mesh.
(3.) Adult nematodes were collected from the mesh using a pasteur pipette and allowed to settle in an eppendorf tube at 1×g for 10 minutes. This packed volume was used to calculate quantities of nematodes for experiments and assays, although nematodes were resuspended in 2-10 volumes of M9 buffer for transfer. Quantitative transfers of nematodes were performed using a Gilson Pipetman P200 or equivalent and a yellow tip with 5 mm cut off the sharp end.
(4.) Assays were performed in 24 well tissue-lture clusters (Nunc multidish). The final assay volume was 230 μL comprising the following sequential additions: • (i) M9 buffer—sufficient to bring the final volume to 230 μL • ([…]) Any other pharmacological agents—≦1.5 μL of drug in DMSO (or water) • (iv) Nematodes—150 μL of a 10% (v/v) stock in M9 • (v) Fluorescent beads—23 μL of a 1% w/v solution in M9.
Where serotonin or other pharmacological agents were omitted, the volume was adjusted with M9 buffer. Control experiments included 1.5 μL of DMSO except in the case of ondansetron, which was added from an aqueous stock.
The fluorescent beads were 1.30 μm uniformly dyed microsphere beads with a hydrophilic surface-coating. The fluorescence excitation maximum was 420 nm and the emission maximum was 485 nm (catalogue code FC04F, carboxylate-modified polystyrene/polyvinyl copolymer, manufactured and supplied by Bangs Laboratories, Inc. 9025 Technology Drive, Fishers, INDIANA 46038-2886, USA).
(5.) The nematodes were incubated for 60 minutes after the addition of the fluorescent beads at room temperature (≈21° C.) without shaking. The assay was terminated by the addition of 20 μL of 100 mM sodium azide.
(6.) Two aliquots of 100 μl each were transferred from each well of the 24 well cluster to a pair of wells in a pre-blocked mesh-bottomed plate (see below for details of the mesh-bottomed plate) and the buffer/bead suspension was immediately aspirated away through the filter mesh using a Millipore Multiscreen vacuum manifold.
(7.) A total of eight washing steps were performed. Each of the first five washes used 200 μL of 1%(w/v) sodium lauryl sulphate (SDS—Sigma) in M9 buffer. The third and fifth washes involved pipetting the solution up and down in the wells of the plate ten times each wash. The SDS washes were followed by three washes with 200 μL of M9 buffer only. At the end of each washing step, solutions were aspirated away through the mesh using a Millipore Multiscreen vacuum manifold. […]

insects = settings: in vivo; cited from earlier work
[2] = as summarised in the background, no concentration given
[3] = Caenorhabditis elegans, in the presence of 1 mM serotonin
[4] = in the presence of 1 mM serotonin

Compound | Effect of 0.325 mM compound on serotonin-stimulated (0.325 mM) bead ingestion [1] | Effect of 0.325 mM compound on bead ingestion [1] | other results
Cc1[nH]c2ccc(O)cc2c1CCN.Cl [2-methyl-5-hydroxytryptamine, 2-methyl-5-hydroxytryptamine hydrochloride] |  |  | Effect on locomotion (nematode C. elegans; 3 mM): did not inhibit locomotion; Effect on pharyngeal pumping (nematode C. elegans; 3 mM): strongly stimulated; Effect on pharyngeal pumping (nematode C. elegans; [2]): strongly and specifically stimulated
COC(=O)c1cccc(C(=O)OC2C[C@H]3CC[C@@H](C2)N3C)c1 (stereo partly shown) [DCP-45237 (17), isophthalic acid methyl ester tropan-3-yl ester] | no effect | no effect | 
COC(=O)c1ccccc1C(=O)OC1C[C@H]2CC[C@@H](C1)N2C (stereo partly shown) [DCP-45238 (18), phthalic acid methyl ester tropan-3-yl ester] | strongly reversed; also recorded: reverses markedly | no effect | 
CN1[C@@H]2CC[C@H]1CC(OC(=O)c1c[nH]c3ccccc13)C2 (stereo partly shown) [DCP-45240 (20), 1H-indole-3-carboxylic acid tropan-3-yl ester] | reverses markedly | no effect | IC50 [1, 3]: 316 µM
COC(=O)c1ccc(C(=O)OC2C[C@H]3CC[C@@H](C2)N3C)cc1 (stereo partly shown) [DCP-45236 (16), terephthalic acid methyl ester tropan-3-yl ester] | no effect | no effect | 
COC(=O)[C@H]1CC[C@H](C(=O)OC2C[C@H]3CC[C@@H](C2)N3C)CC1 (relative stereo) [DCP-45235 (15), trans-cyclohexane-1,4-dicarboxylic acid methyl ester tropan-3-yl ester] | no effect/reverses | no effect | 
Cc1nccn1CC1CCc2c(c3ccccc3n2C)C1=O (stereo not shown) [ondansetron] |  |  | IC50 [1, 3]: 562 µM; Effect on pharyngeal pumping (nematode C. elegans; [2]): profoundly inhibited; Effect on serotonin-stimulated rate of pharyngeal pumping (nematode C. elegans; drug 0.325 mM, serotonin 0.325 mM): antagonised the stimulatory effect; Detrimental effects in insects (insects): significant detrimental effects, including some mortality
CN1[C@@H]2CC[C@H]1CC(OC(=O)c1c(F)cccc1F)C2 (stereo partly shown) [DCP-45227 (7), 2,6-difluoro-benzoic acid tropan-3-yl ester] | reverses marginally | no effect | 
CN1[C@@H]2CC[C@H]1CC(OC(=O)c1ccccc1)C2 (stereo partly shown) [DCP-45221 (1), benzoic acid tropan-3-yl ester] | potentiates marginally | stimulates marginally | 
CN1[C@@H]2CC[C@H]1CC(OC(=O)c1ccccc1Cl)C2 (stereo partly shown) [DCP-45222 (2), 2-chloro-benzoic acid tropan-3-yl ester] | no effect | no effect | 
CN1[C@@H]2CC[C@H]1CC(OC(=O)c1ccc(Cl)cc1)C2 (stereo partly shown) [DCP-45225 (5), 4-chloro-benzoic acid tropan-3-yl ester] | no effect | no effect | 
CC(Oc1ccccc1)C(=O)OC1C[C@H]2CC[C@@H](C1)N2C (stereo partly shown) [DCP-45230 (10), 2-phenoxy-propionic acid tropan-3-yl ester] | reverses marginally | inhibits | 
COC(=O)C12C3C4C1C1C2C3C41C(=O)OC1C[C@H]2CC[C@@H](C1)N2C (stereo partly shown) [DCP-45232 (12), cubane-1,4-dicarboxylic acid methyl ester tropan-3-yl ester] |  | no effect | Effect of 0.325 mM compound on serotonin-stimulated (0.325 mM) bead ingestion ([1]; observed with an unpurified mixture): reverses marginally^1
CN1[C@@H]2CC[C@H]1CC(OC(=O)c1cc(F)ccc1F)C2 (stereo partly shown) [DCP-45226 (6), 2,5-difluoro-benzoic acid tropan-3-yl ester] | reverses marginally | no effect | 
CN1[C@@H]2CC[C@H]1CC(OC(=O)c1ccc(Cl)c(Cl)c1)C2 (stereo partly shown) [DCP-45228 (8), 3,4-dichloro-benzoic acid tropan-3-yl ester] | strongly reversed; also recorded: reverses strongly | reduced; also recorded: inhibits | Implied IC50 without serotonin (extrapolated from IC50 ratio, not measured) ([1]; Caenorhabditis elegans, in the absence of added serotonin, implied from the tropanyl dichlorobenzoate IC50 ratio with and without serotonin, read-out: IC50 and therefore chronic EC50 implied from differential factor): ~6 µM
CN1[C@@H]2CC[C@H]1CC(OC(=O)Cc1ccccc1)C2 (stereo partly shown) [DCP-45231 (11), phenyl-acetic acid tropan-3-yl ester] | reverses marginally | inhibits | 
CN1[C@@H]2CC[C@H]1CC(OC(=O)c1cccc(Cl)c1)C2 (stereo partly shown) [DCP-45224 (4), 3-chloro-benzoic acid tropan-3-yl ester] | strongly reversed; also recorded: reverses strongly | no effect | IC50 (inhibitory concentration 50%) for bead ingestion [1, 4]: impossible to estimate
CN1[C@@H]2CC[C@H]1CC(OC(=O)C1CCC1)C2 (stereo partly shown) [DCP-45234 (14), cyclobutanecarboxylic acid tropan-3-yl ester] | no effect | no effect | 
CN1[C@@H]2CC[C@H]1CC(OC(=O)C1CC1)C2 (stereo partly shown) [DCP-45233 (13), cyclopropanecarboxylic acid tropan-3-yl ester] | potentiates marginally | no effect | 
CN1[C@@H]2CC[C@H]1CC(OC(=O)c1ccccc1F)C2 (stereo partly shown) [DCP-45229 (9), 2-fluoro-benzoic acid tropan-3-yl ester] | strongly reversed; also recorded: reverses marginally | no effect | Anomalous activity in dose response for bead ingestion ([1]; in the presence of 1 mM serotonin, at lower doses): very strong stimulatory effects; IC50 (inhibitory concentration 50%) for bead ingestion [1, 4]: impossible to estimate
CN1[C@@H]2CC[C@H]1CC(OC(=O)c1cccc(CCl)c1)C2 (stereo partly shown) [DCP-45223 (3), 3-chloromethyl-benzoic acid tropan-3-yl ester] | no effect | no effect | 
COC(=O)c1cncc(C(=O)OC2C[C@H]3CC[C@@H](C2)N3C)c1 (stereo partly shown) [DCP-45239 (19), pyridine-3,5-dicarboxylic acid methyl ester tropan-3-yl ester] | potentiates marginally | no effect | 
